Like-named read-outs stand apart in the source and are kept apart here.
Assays:
GSPT1 [1] = target: T1, GSPT1 (Homo sapiens, UniProt P15170+Q96SW2); assay: cell-based; conditions: read-out: GSPT1 degradation classification
MV-4-11 cells = assay: AML cell viability, CellTiter-Glo, MV-4-11 cells; assay type: cell-based; conditions: Homo sapiens
Protocol: MV4-11 cells were obtained from ATCC and grown in IMDM supplemented with 10% FBS. The cells were maintained at 37° C. under 5% CO2. […] The luminescence was normalized to that of DMSO-treated samples. IC50 values were obtained using three-parameter non-linear regressions using Prism (GraphPad). […] Cell viability was measured using the CellTiter-Glo reagent after 44 hours of treatment. […] MV4-11 cells were obtained from ATCC and grown in IMDM supplemented with 10% FBS. The cells were maintained at 37° C. under 5% CO2. […] Cell viability was measured using the CellTiter-Glo reagent after 44 hours of treatment.

GSPT1 [2] = target: T1, GSPT1; assay type: cell-based
Protocol: GSPT1_HiBIT_HEK293 cells were culture in DMEM medium with 10% FBS under standard tissue culture conditions. […] GSPT1 level was determined in along with the Nano-Glo HiBiT Lytic Detection system [Promega N3050] with final concentration of 1×. The luminescence was normalized to that of DMSO-treated samples. DC50 values were obtained using three-parameter non-linear regressions using Prism (GraphPad).

NCI-H1155 cells = assay: NSCLC cell viability, CellTiter-Glo, NCI-H1155 cells; assay type: cell-based; conditions: Homo sapiens; NCI-H1155 cells, CellTiter-Glo, 72 hours of treatment; read-out: Cell viability classification (NCI-H1155)
[3] = MV4-11, MV-4-11 cells, CellTiter-Glo, 44 hours of treatment, TABLE 1, read-out: Cell viability classification
[4] = MV4-11, MV-4-11 cells, CellTiter-Glo, 44 hours of treatment, TABLE 5, read-out: Cell viability classification (MV-4-11)
[5] = read-out: GSPT1 degradation classification; DC50, GSPT1_HiBIT_HEK293 cells, 16 hours, Nano-Glo HiBiT Lytic Detection
[6] = DC50, GSPT1_HiBIT_HEK293 cells, 16 hours, Nano-Glo HiBiT Lytic Detection; read-out: GSPT1 degradation classification

T1 sequence (P15170 whole entry): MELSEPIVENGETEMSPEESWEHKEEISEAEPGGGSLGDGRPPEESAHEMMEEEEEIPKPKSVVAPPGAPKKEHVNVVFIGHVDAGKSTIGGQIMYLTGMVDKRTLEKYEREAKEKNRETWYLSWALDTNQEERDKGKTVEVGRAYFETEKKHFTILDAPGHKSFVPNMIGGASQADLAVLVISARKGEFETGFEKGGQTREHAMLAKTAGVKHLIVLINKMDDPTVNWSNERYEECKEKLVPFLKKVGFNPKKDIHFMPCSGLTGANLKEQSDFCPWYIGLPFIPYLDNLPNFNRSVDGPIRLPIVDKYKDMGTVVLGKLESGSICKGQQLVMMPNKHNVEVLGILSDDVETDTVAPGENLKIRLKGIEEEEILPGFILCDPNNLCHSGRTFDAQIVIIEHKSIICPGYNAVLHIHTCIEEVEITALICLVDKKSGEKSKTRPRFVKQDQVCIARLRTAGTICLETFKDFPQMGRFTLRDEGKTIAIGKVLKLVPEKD
T1 sequence (Q96SW2 whole entry): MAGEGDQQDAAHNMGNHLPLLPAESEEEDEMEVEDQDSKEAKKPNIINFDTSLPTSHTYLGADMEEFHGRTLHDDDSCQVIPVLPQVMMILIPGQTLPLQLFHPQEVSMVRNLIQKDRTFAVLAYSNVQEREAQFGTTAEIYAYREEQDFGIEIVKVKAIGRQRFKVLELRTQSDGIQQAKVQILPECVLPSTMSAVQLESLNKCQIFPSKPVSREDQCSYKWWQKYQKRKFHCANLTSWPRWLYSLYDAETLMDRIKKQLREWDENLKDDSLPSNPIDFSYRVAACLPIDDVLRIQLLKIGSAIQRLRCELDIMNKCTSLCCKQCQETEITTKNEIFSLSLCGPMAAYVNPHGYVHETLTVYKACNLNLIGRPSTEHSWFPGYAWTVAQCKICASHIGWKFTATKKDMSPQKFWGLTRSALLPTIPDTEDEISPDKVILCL
T1 sequence (Q16531 whole entry partner): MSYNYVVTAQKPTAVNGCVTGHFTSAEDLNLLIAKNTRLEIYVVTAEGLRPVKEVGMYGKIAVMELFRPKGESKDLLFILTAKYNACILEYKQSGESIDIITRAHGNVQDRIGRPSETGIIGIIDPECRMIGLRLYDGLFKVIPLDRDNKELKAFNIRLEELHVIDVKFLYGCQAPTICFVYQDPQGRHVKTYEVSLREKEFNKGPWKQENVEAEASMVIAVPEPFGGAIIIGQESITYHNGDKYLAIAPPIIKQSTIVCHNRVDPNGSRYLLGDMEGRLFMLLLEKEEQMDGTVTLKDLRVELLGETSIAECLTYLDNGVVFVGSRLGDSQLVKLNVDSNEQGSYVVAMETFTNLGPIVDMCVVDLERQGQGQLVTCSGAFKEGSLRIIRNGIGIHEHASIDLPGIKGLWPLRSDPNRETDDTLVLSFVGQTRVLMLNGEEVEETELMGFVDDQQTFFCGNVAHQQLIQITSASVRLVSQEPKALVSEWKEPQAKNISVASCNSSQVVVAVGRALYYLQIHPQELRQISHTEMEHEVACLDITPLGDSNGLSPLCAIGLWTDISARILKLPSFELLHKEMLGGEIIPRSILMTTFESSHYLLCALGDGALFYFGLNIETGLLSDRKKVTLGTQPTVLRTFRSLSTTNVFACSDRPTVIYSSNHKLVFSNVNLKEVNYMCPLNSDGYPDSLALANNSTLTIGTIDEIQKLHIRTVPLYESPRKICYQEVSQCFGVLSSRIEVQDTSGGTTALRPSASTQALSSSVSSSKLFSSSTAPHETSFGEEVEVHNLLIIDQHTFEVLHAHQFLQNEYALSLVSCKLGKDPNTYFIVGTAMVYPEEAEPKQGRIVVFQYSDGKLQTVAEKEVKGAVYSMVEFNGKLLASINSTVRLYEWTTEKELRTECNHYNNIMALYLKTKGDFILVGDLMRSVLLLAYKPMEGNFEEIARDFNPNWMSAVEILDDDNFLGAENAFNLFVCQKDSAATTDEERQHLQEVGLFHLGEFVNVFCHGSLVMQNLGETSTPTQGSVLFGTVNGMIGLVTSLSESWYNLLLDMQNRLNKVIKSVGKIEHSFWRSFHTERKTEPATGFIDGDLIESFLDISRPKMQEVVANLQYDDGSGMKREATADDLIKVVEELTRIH

Work on `O=C1CCC(N2Cc3cc(C(=O)Nc4csc5ccncc45)ccc3C2=O)C(=O)N1` (stereo not shown) [Example 60] yielded an inhibition at 1 µM (GSPT1 [1]; MV4-11, MV-4-11 cells, 1 μM, 6 hours, Western Blot, % reduction of GSPT1 compared to DMSO, normalized to GAPDH) of 50 to 75% and an IC50 (MV-4-11 cells; [3]) of 0.1 to 1 µM.
In the case of `O=C1CCN(c2ccc3ccc(C(=O)N4Cc5cccc(F)c5C4)cc3c2)C(=O)N1` [Example 127, 1-(7-(4-fluoroisoindoline-2-carbonyl)naphthalen-2-yl)dihydropyrimidine-2,4(1H,3H)-dione], the IC50 (MV-4-11 cells; [4]) is reported as 0.1 to 1 µM.
`O=C1CCC(N2Cc3cc(C(=O)N4CCc5ccc(F)cc54)ccc3C2=O)C(=O)N1` (stereo not shown) [Example 32, 3-(5-(6-fluoroindoline-1-carbonyl)-1-oxoisoindolin-2-yl)piperidine-2,6-dione] showed an inhibition at 1 µM (GSPT1 [1]; MV4-11, 6 h) of over 75% and an IC50 (MV-4-11 cells; [3]) of under 0.1 µM.
Work on `O=C1CC[C@H](N2Cc3cc(C(=O)Nc4cncc5ccccc45)ccc3C2=O)C(=O)N1` (stereo in doubt) [Example 2, 2-(2,6-dioxopiperidin-3-yl)-N-(isoquinolin-4-yl)-1-oxoisoindoline-5-carboxamide] yielded an IC50 (MV-4-11 cells; [3]) of 0.1 to 1 µM.
In the case of `O=C1CCC(N2Cc3cc(C(=O)N4CCc5ccccc54)ccc3C2=O)C(=O)N1` (stereo not shown) [Example 11, 3-(5-(indoline-1-carbonyl)-1-oxoisoindolin-2-yl)piperidine-2,6-dione], the inhibition at 1 µM (GSPT1 [1]; MV4-11, 6 h) is reported as over 75% and the IC50 (MV-4-11 cells; MV4-11, 44 h, read-out: Cell viability classification) is reported as under 0.1 µM.
`O=C1CCC(N2Cc3cc(C(=O)Nc4ccsc4)ccc3C2=O)C(=O)N1` (stereo not shown) [Example 58, 2-(2,6-dioxopiperidin-3-yl)-1-oxo-N-(thiophen-3-yl)isoindoline-5-carboxamide] gave an inhibition at 1 µM (GSPT1 [1]; MV4-11, 6 h) of over 75% and an IC50 (MV-4-11 cells; [3]) of under 0.1 µM.
With `O=C1CCC(N2Cc3cc(C(=O)N4CCc5cc(F)cc(F)c54)ccc3C2=O)C(=O)N1` (stereo not shown) [Example 57, 3-(5-(5,7-difluoroindoline-1-carbonyl)-1-oxoisoindolin-2-yl)piperidine-2,6-dione] the inhibition at 1 µM (GSPT1 [1]; MV4-11, 6 h) was 50 to 75% and the IC50 (MV-4-11 cells; [3]) was 0.1 to 1 µM.
Work on `O=C1CCN(c2ccc3ccc(C(=O)N4CCc5cccc(F)c54)cc3c2)C(=O)N1` [Example 118, 1-(7-(7-fluoroindoline-1-carbonyl)naphthalen-2-yl)dihydropyrimidine-2,4(1H,3H)-dione] yielded an IC50 (MV-4-11 cells; [4]) of over 1 µM.
For `O=C1CCN(c2ccc3ccc(C(=O)N4CCCc5ccccc54)cc3c2)C(=O)N1` [Example 128, 1-(7-(1,2,3,4-tetrahydroquinoline-1-carbonyl)naphthalen-2-yl)dihydropyrimidine-2,4(1H,3H)-dione], the IC50 (MV-4-11 cells; [4]) was over 1 µM.
For `O=C1CCN(c2ccc3ccc(C(=O)N4Cc5ccccc5C4)cc3c2)C(=O)N1` [Example 125, 1-(7-(isoindoline-2-carbonyl)naphthalen-2-yl)dihydropyrimidine-2,4(1H,3H)-dione], the IC50 (MV-4-11 cells; [4]) was 0.1 to 1 µM.
`O=C1CCN(c2ccc3ccc(C(=O)N4CCc5ccccc54)cc3c2)C(=O)N1` [Example 120, 1-(7-(indoline-1-carbonyl)naphthalen-2-yl)dihydropyrimidine-2,4(1H,3H)-dione] showed an IC50 (MV-4-11 cells; [4]) of over 1 µM.
Work on `O=C1CCN(c2ccc3ccc(C(=O)N4CCc5cc(F)ccc54)cc3c2)C(=O)N1` [Example 119, 1-(7-(5-fluoroindoline-1-carbonyl)naphthalen-2-yl)dihydropyrimidine-2,4(1H,3H)-dione] yielded an IC50 (MV-4-11 cells; [4]) of over 1 µM.
For `O=C1CCN(c2ccc3ccc(C(=O)N4CCc5ccccc5C4)cc3c2)C(=O)N1` [Example 129, 1-(7-(1,2,3,4-tetrahydroisoquinoline-2-carbonyl)naphthalen-2-yl)dihydropyrimidine-2,4(1H,3H)-dione], the IC50 (MV-4-11 cells; [4]) was over 1 µM.
`O=C1CCC(N2Cc3cc(C(=O)N4Cc5ccccc5C4)ccc3C2=O)C(=O)N1` (stereo not shown) [Example 12, 3-(5-(isoindoline-2-carbonyl)-1-oxoisoindolin-2-yl)piperidine-2,6-dione] showed an IC50 (MV-4-11 cells; [3]) of under 0.1 µM.
`O=C1CCN(c2ccc3ccc(C(=O)N4CCc5c(F)cccc54)cc3c2)C(=O)N1` [Example 126, 1-(7-(4-fluoroindoline-1-carbonyl)naphthalen-2-yl)dihydropyrimidine-2,4(1H,3H)-dione] showed an IC50 (MV-4-11 cells; [4]) of over 1 µM.
Compound `O=C1CCC(N2Cc3cc(C(=O)N4Cc5cc(F)cc(C(F)(F)F)c5C4)ccc3C2=O)C(=O)N1` (stereo not shown) [Example 264, 3-(5-(6-fluoro-4-(trifluoromethyl)isoindoline-2-carbonyl)-1-oxoisoindolin-2-yl)piperidine-2,6-dione] has a DC50 (GSPT1 [2]; [5]) of under 0.1 µM and an IC50 (NCI-H1155 cells) of 0.01 to 0.1 µM.
For `O=C1CCC(c2nc3ccc(C(=O)N4Cc5cc(F)cc(F)c5C4)cc3o2)C(=O)N1` (stereo not shown) [Example 176, 3-(6-(4,6-difluoroisoindoline-2-carbonyl)benzo[d]oxazol-2-yl)piperidine-2,6-dione], the DC50 (GSPT1 [2]; [6]) was 0.3 to 1 µM and the IC50 (NCI-H1155 cells) was 0.1 to 1 µM.
Work on `Cc1cccc2c1CN(C(=O)c1ccc3nc(C4CCC(=O)NC4=O)oc3c1)C2` (stereo not shown) [Example 161, 3-(6-(4-methylisoindoline-2-carbonyl)benzo[d]oxazol-2-yl)piperidine-2,6-dione] yielded a DC50 (GSPT1 [2]; [6]) of 0.1 to 0.3 µM and an IC50 (NCI-H1155 cells) of 0.01 to 0.1 µM.
`N#Cc1cc(F)c2c(c1)CN(C(=O)c1ccc3nc(C4CCC(=O)NC4=O)oc3c1)C2` (stereo not shown) [Example 200, 2-(2-(2,6-dioxopiperidin-3-yl)benzo[d]oxazole-6-carbonyl)-7-fluoroisoindoline-5-carbonitrile] was tested, and the DC50 (GSPT1 [2]; [6]) was over 1 µM and the IC50 (NCI-H1155 cells) was 0.1 to 1 µM.
Work on `O=C1CCC(c2nc3ccc(C(=O)N4Cc5cccc(Cl)c5C4)cc3o2)C(=O)N1` (stereo not shown) [Example 158, 3-(6-(4-chloroisoindoline-2-carbonyl)benzo[d]oxazol-2-yl)piperidine-2,6-dione] yielded a DC50 (GSPT1 [2]; [6]) of 0.1 to 0.3 µM and an IC50 (NCI-H1155 cells) of 0.01 to 0.1 µM.
`O=C1CCC(N2Cc3cc(C(=O)N4CC5(C=C(c6ccc(C(F)(F)F)cc6F)C5)C4)ccc3C2=O)C(=O)N1` (stereo not shown) [Example 241, 3-(5-(6-(2-fluoro-4-(trifluoromethyl)phenyl)-2-azaspiro[3.3]hept-5-ene-2-carbonyl)-1-oxoisoindolin-2-yl)piperidine-2,6-dione] was tested, and the DC50 (GSPT1 [2]; [5]) was under 0.1 µM and the IC50 (NCI-H1155 cells) was 0.01 to 0.1 µM.
`O=C1CCC(N2Cc3cc(C(=O)N4Cc5ccc(F)c(F)c5C4)ccc3C2=O)C(=O)N1` (stereo not shown) [Example 109, 3-(5-(4,5-difluoroisoindoline-2-carbonyl)-1-oxoisoindolin-2-yl)piperidine-2,6-dione] gave a DC50 (GSPT1 [2]; [5]) of under 0.1 µM and an IC50 (NCI-H1155 cells) of 0.01 to 0.1 µM.
In the case of `COc1cc(F)c2c(c1)CCN2C(=O)c1ccc2c(c1)CN(C1CCC(=O)NC1=O)C2=O` (stereo not shown) [Example 64, 3-(5-(7-fluoro-5-methoxyindoline-1-carbonyl)-1-oxoisoindolin-2-yl)piperidine-2,6-dione], the IC50 (MV-4-11 cells; MV4-11, TABLE 2, MV-4-11 cells assumed, CellTiter-Glo, 44 hours, read-out: Cell viability classification) is reported as under 0.1 µM.
With `Cc1ccc(C2CC3(CC(NC(=O)c4ccc5c(c4)CN(C4CCC(=O)NC4=O)C5=O)C3)C2)cc1` (stereo not shown) [Example 227, 2-(2,6-dioxopiperidin-3-yl)-1-oxo-N-(6-(p-tolyl)spiro[3.3]heptan-2-yl)isoindoline-5-carboxamide] the DC50 (GSPT1 [2]; [5]) was under 0.1 µM and the IC50 (NCI-H1155 cells) was under 0.01 µM.
`Cc1ccc(C2=CC3(C2)CN(C(=O)c2ccc4c(c2)CN(C2CCC(=O)NC2=O)C4=O)C3)cc1` (stereo not shown) [Example 236, 3-(1-oxo-5-(6-(p-tolyl)-2-azaspiro[3.3]hept-5-ene-2-carbonyl)isoindolin-2-yl)piperidine-2,6-dione] showed a DC50 (GSPT1 [2]; [5]) of under 0.1 µM and an IC50 (NCI-H1155 cells) of under 0.01 µM.
Work on `O=C1CCC(N2Cc3cc(C(=O)NC4CC5(C=C(c6ccc(F)cc6F)C5)C4)c(F)cc3C2=O)C(=O)N1` (stereo not shown) [Example 254, N-(6-(2,4-difluorophenyl)spiro[3.3]hept-5-en-2-yl)-2-(2,6-dioxopiperidin-3-yl)-6-fluoro-1-oxoisoindoline-5-carboxamide] yielded a DC50 (GSPT1 [2]; [6]) of 0.1 to 0.3 µM and an IC50 (NCI-H1155 cells) of 0.01 to 0.1 µM.
`O=C1CCC(N2Cc3cc(C(=O)N4CC(F)(c5ccccc5F)C4)ccc3C2=O)C(=O)N1` (stereo not shown) [Example 202, 3-(5-(3-fluoro-3-(2-fluorophenyl)azetidine-1-carbonyl)-1-oxoisoindolin-2-yl)piperidine-2,6-dione] was tested, and the DC50 (GSPT1 [2]; [5]) was 0.1 to 0.3 µM and the IC50 (NCI-H1155 cells) was 0.01 to 0.1 µM.
With `Cc1cccc2c1CN(C(=O)c1ccc3c(c1)CN(C1CCC(=O)NC1=O)C3=O)C2` (stereo not shown) [Example 130, 3-(5-(4-methylisoindoline-2-carbonyl)-1-oxoisoindolin-2-yl)piperidine-2,6-dione] the DC50 (GSPT1 [2]; [5]) was under 0.1 µM and the IC50 (NCI-H1155 cells) was 0.01 to 0.1 µM.
In the case of `O=C1CCC(c2nc3ccc(C(=O)N4Cc5ccc(F)c(Cl)c5C4)cc3o2)C(=O)N1` (stereo not shown) [Example 197, 3-(6-(4-chloro-5-fluoroisoindoline-2-carbonyl)benzo[d]oxazol-2-yl)piperidine-2,6-dione], the DC50 (GSPT1 [2]; [6]) is reported as over 1 µM and the IC50 (NCI-H1155 cells) is reported as 0.1 to 1 µM.
With `C[C@@H]1CN(C(=O)c2ccc3c(c2)CN(C2CCC(=O)NC2=O)C3=O)c2cc(F)ccc21` (stereo partly drawn) [Example 133, 3-(5-((S)-6-fluoro-3-methylindoline-1-carbonyl)-1-oxoisoindolin-2-yl)piperidine-2,6-dione] the DC50 (GSPT1 [2]; [5]) was under 0.1 µM and the IC50 (NCI-H1155 cells) was under 0.01 µM.
